Measurements taken from ChEMBL document CHEMBL6092147, “Design of inhibitors of SARS-CoV-2 papain-like protease deriving from GRL0617: Structure-activity relationships” (Bioorg Med Chem, 2024).

What was measured:
[1] = molecular target: T1, Replicase polyprotein 1ab (Severe acute respiratory syndrome coronavirus 2, UniProt P0DTD1); assay: Inhibition of SARS-CoV-2 Main protease extracted from Escherichia coli BL21 (DE3) cells measured for 60 mins by FRET based analysis
[2] = molecular target: T1, Replicase polyprotein 1ab; assay: Inhibition of SARS-CoV-2 papain-like protease (PLpro) by enzymatic assay
[3] = molecular target: T1, Replicase polyprotein 1ab; assay: Inhibition of SARS-CoV-2 papain-like protease
[4] = molecular target: T1, Replicase polyprotein 1ab; assay: Inhibition of SARS-CoV-2 papain-like protease (PLpro) by FRET analysis
[5] = molecular target: T1, Replicase polyprotein 1ab; assay: Inhibition of SARS-CoV-2 Main protease using Dabcyl-KLSAVLQSGFRKM-Edans-NH2 as substrate incubated for 30 mins by FRET based enzymatic assay

Cc1ccc(NC(=O)CN2CCCC2)cc1C(=O)N[C@H](C)c1cccc2ccccc12
IC50 [1]: 1.1 µM

CCn1ccc(-c2cc(-c3ccn(C)n3)cc([C@@H](C)NC(=O)c3cc(OCCN(C)C)ccc3C)c2)n1
IC50 [2]: 0.33 µM

Cc1ccc(N2CCN(C(=N)N)CC2)cc1C(=O)NC1(c2cccc3ccccc23)CC1
IC50 [3]: 0.14 µM

Cc1ccc(OCCN(C)C)cc1C(=O)N[C@H](C)c1cc(-c2ccsc2)cc(-c2ccsc2)c1
IC50 [2]: 0.1 µM

Cc1ccc(N2CC3CNCC3C2)cc1C(=O)NC1(c2cccc3ccccc23)CC1 (configuration not stated)
IC50 [3]: 0.03 µM

Cc1ccc(NC[C@@]2(C)CCCN2)cc1C(=O)N[C@H](C)c1cccc2ccccc12
IC50 [1]: 1.1 µM

Cc1ccc(NC(=O)C2CCNCC2)cc1C(=O)N[C@H](C)c1cc(-c2cccs2)cc(-c2cccs2)c1
IC50 [4]: 0.163 µM

Cc1ccc(NCC2CNC2)cc1C(=O)N[C@H](C)c1cccc2ccccc12
IC50 [1]: 1 µM

Cc1ccccc1C(=O)NC(C)c1cccc2ccccc12 (racemic)
IC50 [3]: 23.5 µM

Cc1ccc(N2CCN(CC(=O)O)CC2)cc1C(=O)NC1(c2cccc3ccccc23)CC1
IC50 [3]: 0.04 µM

CCn1ccc(-c2cc(-c3ccn(CC)n3)cc([C@@H](C)NC(=O)c3cc(OCCN(C)C)ccc3C)c2)n1
IC50 [2]: 0.2 µM

Cc1ccc(N2CCN(C)CC2)cc1C(=O)NC1(c2cccc3ccccc23)CC1
IC50 [3]: 0.02 µM

CCn1ccc(-c2cc(-c3cnn(COC)c3)cc([C@@H](C)NC(=O)c3cc(OCCN(C)C)ccc3C)c2)n1
IC50 [2]: 0.24 µM

CCn1ccc(-c2cc(-c3cnn(C(F)F)c3)cc([C@@H](C)NC(=O)c3cc(OCCN(C)C)ccc3C)c2)n1
IC50 [2]: 0.32 µM

Cc1ccc(NC2CCN(C[C@@H]3CCCN3)CC2)cc1C(=O)N[C@H](C)c1cccc2ccccc12
IC50 [1]: 1 µM

Cc1ccc(NCC2CN(C)CCN2)cc1C(=O)N[C@H](C)c1cccc2ccccc12 (mixture of isomers)
IC50 [1]: 1.5 µM

Cc1ccc(OCCN(C)C)cc1C(=O)N[C@H](C)c1cc(-c2ccco2)cc(-c2ccco2)c1
IC50 [2]: 0.2 µM

Cc1ccc(OCCN(C)C)cc1C(=O)N[C@H](C)c1cc(-c2ccoc2)cc(-c2ccoc2)c1
IC50 [2]: 0.08 µM

Cc1ccc(NC(=O)[C@H]2CCCN2)cc1C(=O)N[C@H](C)c1cccc2ccccc12
IC50 [1]: 1.4 µM

Cc1ccc(OCCN(C)C)cc1C(=O)N[C@H](C)c1cc(-c2ccnn2C)cc(-c2ccnn2C)c1
IC50 [2]: 0.46 µM

C#CC(=O)NNC(=O)CCc1ccccc1C(=O)N[C@H](C)c1cccc2ccccc12
IC50 [3]: 0.09 µM

Cc1ccc(NC2CCN(C)CC2)cc1C(=O)N[C@H](C)c1cc(-c2cccs2)cc(-c2cccs2)c1
IC50 [4]: 0.18 µM

Cc1ccc(NCC2(C)CCN2)cc1C(=O)N[C@H](C)c1cccc2ccccc12 (mixture of isomers)
IC50 [1]: 0.8 µM

Cc1ccc(OCCN(C)C)cc1C(=O)N[C@H](C)c1cc(-c2ccccc2)cc(-c2ccccc2)c1
IC50 [2]: 0.103 µM

COCCn1cc(-c2cc(-c3cnn(CCOC)c3)cc([C@@H](C)NC(=O)c3cc(OCCN(C)C)ccc3C)c2)cn1
IC50 [2]: 0.18 µM

Cc1ccc(N2CC3CN(C)CC3C2)cc1C(=O)NC1(c2cccc3ccccc23)CC1 (configuration not stated)
IC50 [3]: 0.13 µM

Cc1ccc(N2C[C@H]3C[C@@H](C2)N3)cc1C(=O)NC1(c2cccc3ccccc23)CC1
IC50 [3]: 0.02 µM

Cc1ccc(OCC[N+](C)(C)C)cc1C(=O)N[C@H](C)c1cc(-c2cccs2)cc(-c2cccs2)c1
IC50 [4]: 0.13 µM

CCn1ccc(-c2cc(-c3ccn(CC(F)F)n3)cc([C@@H](C)NC(=O)c3cc(OCCN(C)C)ccc3C)c2)n1
IC50 [2]: 0.22 µM

Cc1ccc(OCCN(C)C)cc1C(=O)N[C@H](C)c1cc(-c2cncs2)cc(-c2cncs2)c1
IC50 [2]: 0.1 µM

Cc1ccc(NC(=O)C2CNCCN2)cc1C(=O)N[C@H](C)c1cccc2ccccc12 (mixture of isomers)
IC50 [1]: 1.5 µM

CC(=O)Nc1cccc(Nc2ccc(C)c(C(=O)NC3(c4cccc5ccccc45)CC3)c2)c1
IC50 [3]: 0.5 µM

Cc1ccc(NC[C@H]2CCCCN2C)cc1C(=O)N[C@H](C)c1cccc2ccccc12
IC50 [1]: 1.5 µM

CCn1nccc1-c1cc(-c2ccnn2CC)cc([C@@H](C)NC(=O)c2cc(OCCN(C)C)ccc2C)c1
IC50 [2]: 0.44 µM

CCn1ccc(-c2cc(-c3cnn(CC(F)F)c3)cc([C@@H](C)NC(=O)c3cc(OCCN(C)C)ccc3C)c2)n1
IC50 [2]: 0.23 µM

Cc1ccc(OCCN2CCOCC2)cc1C(=O)N[C@H](C)c1cc(-c2cccs2)cc(-c2cccs2)c1
IC50 [4]: 0.36 µM

CCn1ccc(-c2cc(-c3cnn(C(C)C)c3)cc([C@@H](C)NC(=O)c3cc(OCCN(C)C)ccc3C)c2)n1
IC50 [2]: 0.2 µM

Cc1ccc(NC[C@]2(C)CCCN2)cc1C(=O)N[C@H](C)c1cccc2ccccc12
IC50 [1]: 1.2 µM

Cc1ccc(OCCN2CCCC2)cc1C(=O)N[C@H](C)c1cc(-c2cccs2)cc(-c2cccs2)c1
IC50 [4]: 0.07 µM

Cc1ccc(NC(=O)CNCC2CC2)cc1C(=O)N[C@H](C)c1cccc2ccccc12
IC50 [1]: 1.3 µM

Cc1ccc(-c2cc(-c3ccc(C)s3)cc([C@@H](C)NC(=O)c3cc(OCCN(C)C)ccc3C)c2)s1
IC50 [2]: 0.14 µM

Cc1ccc(NC(=O)CN(C)C)cc1C(=O)N[C@H](C)c1cc(-c2cccs2)cc(-c2cccs2)c1
IC50 [4]: 0.11 µM

Cc1ccc(N)cc1C(=O)NC1(c2cccc3ccccc23)CC1
IC50 [3]: 0.18 µM

CCn1ccc(-c2cc(-c3cnn(CC(F)(F)F)c3)cc([C@@H](C)NC(=O)c3cc(OCCN(C)C)ccc3C)c2)n1
IC50 [2]: 0.27 µM

Cc1ccc(NC[C@H]2CCCN2C)cc1C(=O)N[C@H](C)c1cccc2ccccc12
IC50 [1]: 1.5 µM

Cc1ccc(NC[C@@H](N)CNC[C@H]2CCCN2)cc1C(=O)N[C@H](C)c1cccc2ccccc12
IC50 [1]: 1.1 µM

Cc1ccc(NC(=O)C2CN(C(C)C)CCN2)cc1C(=O)N[C@H](C)c1cccc2ccccc12 (mixture of isomers)
IC50 [1]: 1.4 µM

Cc1ccc(NC[C@@H]2CCCCN2C)cc1C(=O)N[C@H](C)c1cccc2ccccc12
IC50 [1]: 1.4 µM

COc1ncc(-c2cc(-c3cnc(OC)nc3)cc([C@@H](C)NC(=O)c3cc(OCCN(C)C)ccc3C)c2)cn1
IC50 [2]: 1.95 µM

Cc1ccc(NC(=O)NCCN)cc1C(=O)N[C@H](C)c1cccc2ccccc12
IC50 [1]: 1.1 µM

Cc1ccc(OCCN(C)C)cc1C(=O)N[C@H](C)c1cc(-c2cnn(C(F)F)c2)cc(-c2cnn(C(F)F)c2)c1
IC50 [2]: 0.17 µM

Cc1ccc(N2CCNCC2)cc1C(=O)NC1(c2cccc3ccccc23)CC1
IC50 [3]: 0.03 µM

Cc1ccc(N2CCN(CCC(=O)O)CC2)cc1C(=O)NC1(c2cccc3ccccc23)CC1
IC50 [3]: 0.11 µM

CCn1ccc(-c2cc(-c3ccn(C(F)F)n3)cc([C@@H](C)NC(=O)c3cc(OCCN(C)C)ccc3C)c2)n1
IC50 [2]: 0.4 µM

CCn1ccc(-c2cc(-c3cnn(C4COC4)c3)cc([C@@H](C)NC(=O)c3cc(OCCN(C)C)ccc3C)c2)n1
IC50 [2]: 0.26 µM

Cc1ccc(OCCN(C)C)cc1C(=O)N[C@H](C)c1cc(-c2ccc(O)cc2)cc(-c2ccc(O)cc2)c1
IC50 [2]: 0.16 µM

Cc1ccc(N2CCNC(C)C2)cc1C(=O)NC1(c2cccc3ccccc23)CC1 (configuration not stated)
IC50 [3]: 0.07 µM

Cc1ccc(OCCN(C)C)cc1C(=O)N[C@H](C)c1cc(-c2ccn(C)n2)cc(-c2ccn(C3CC3)n2)c1
IC50 [5]: 0.12 µM

Cc1ccc(OCCN(C)C)cc1C(=O)N[C@H](C)c1cc(-c2c(C)noc2C)cc(-c2c(C)noc2C)c1
IC50 [2]: 0.4 µM

Cc1ccc(OCCN(C)C)cc1C(=O)N[C@H](C)c1cc(-c2ccn(C)n2)cc(-c2ccn(C)n2)c1
IC50 [5]: 0.14 µM

COCCn1cc(-c2cc(-c3cnn(CC(F)F)c3)cc([C@@H](C)NC(=O)c3cc(OCCN(C)C)ccc3C)c2)cn1
IC50 [5]: 0.2 µM

Cc1ccc(OCCN(C)C)cc1C(=O)N[C@H](C)c1cc(-c2cnn(CCO)c2)cc(-c2cnn(CCO)c2)c1
IC50 [2]: 0.16 µM
